# Reference: ChEMBL document CHEMBL1137221, “Validation of model of cytochrome P450 2D6: an in silico tool for predicting metabolism and inhibition” (J Med Chem, 2004)
# Target: T1, Cytochrome P450 2D6 (Homo sapiens, UniProt P10635)
# Experiment: Inhibitory concentration against cytochrome P450 2D6
# T1 sequence (P10635 whole entry): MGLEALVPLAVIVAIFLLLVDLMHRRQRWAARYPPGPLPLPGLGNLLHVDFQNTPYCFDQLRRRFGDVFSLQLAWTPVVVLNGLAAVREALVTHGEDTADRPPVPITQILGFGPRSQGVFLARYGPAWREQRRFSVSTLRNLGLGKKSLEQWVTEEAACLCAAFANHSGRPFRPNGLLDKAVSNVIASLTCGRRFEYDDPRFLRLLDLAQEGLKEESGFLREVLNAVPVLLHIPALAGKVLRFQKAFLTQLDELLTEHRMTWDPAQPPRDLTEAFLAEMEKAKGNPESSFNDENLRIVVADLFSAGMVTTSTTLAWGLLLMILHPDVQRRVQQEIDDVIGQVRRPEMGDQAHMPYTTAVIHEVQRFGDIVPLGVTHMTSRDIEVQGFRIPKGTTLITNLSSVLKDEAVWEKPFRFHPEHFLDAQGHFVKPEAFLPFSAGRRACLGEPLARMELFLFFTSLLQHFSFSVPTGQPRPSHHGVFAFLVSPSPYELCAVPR
row,IC50 [µM],Structure (SMILES)
1,570,O=C(O)c1ccc(CNCc2ccccc2)cc1
2,234,NCCCc1c(-c2ccccc2)nc(N)[nH]c1=O
3,288,COc1ccc(S(=O)(=O)N/N=C/C(=O)O)cc1
4,2.1,Clc1ccc(Cl)c(SCCCN2CCNCC2)c1
5,8,NCC(O)CSCc1ccc(Cl)cc1 (configuration not stated)
6,1.5,CCN(CC)CCNc1ccc(CO)c2sc3ccccc3c(=O)c12 [HYCANTHONE]
7,2.6,CNCCC=C1c2ccccc2CCc2ccccc21 [NORTRIPTYLINE]

# Second part, the molecule before the results:
row,Structure (SMILES),IC50 [µM]
1,NS(=O)(=O)OCCCCCCCOS(N)(=O)=O,699
2,O=C1CC2(CCCCC2)C(=O)C1CC(Cl)CCl (configuration not stated),310
3,O=C(Cn1ccnc1[N+](=O)[O-])N(CCO)CCO,1020
4,COC12[C@H](COC(N)=O)C3=C(C(O)=C(C)C(=N)C3=O)N1C[C@H]1[C@@H]2N1C (some centres not stated),94.3
5,CN(C)CCOc1ccc(/C(=C/c2ccccc2)c2ccccc2)cc1,7.2
6,CC(C)NC(=O)OCc1c(COC(=O)NC(C)C)c(-c2ccc(Cl)c(Cl)c2)n2c1CCC2,11
7,O=CC(NC(=O)N(CCCl)N=O)C(O)C(O)C(O)CO (configuration not stated),2020
8,COc1ccc2c(c1[N+](=O)[O-])CC[C@@H]1[C@@H]2CC[C@]2(C)C(=O)CC[C@@H]12,196
9,"COC(=O)C12OC[C@]34[C@H]([C@@H](O)[C@@H]1O)[C@@]1(C)CC(=O)C(O)=C(C)[C@@H]1C[C@H]3OC(=O)[C@H](OC(=O)/C=C(\C)C(C)C)[C@@H]24 (single isomer, unassigned) [BRUCEANTIN]",514
10,CC(=O)N(C)c1ccc(Nc2cc(C)nc3ccc4[nH]cnc4c23)cc1 [ACODAZOLE],18.1
11,CN(C)CCN1C(=O)c2cccc3cc(N)cc(c23)C1=O [AMONAFIDE],39.6
12,O=C(O)CCCc1ccc(N(CCCl)CCCl)cc1 [CHLORAMBUCIL],65.1
13,C=C[C@H]1C[N@@]2CC[C@H]1C[C@@H]2[C@@H](O)c1ccnc2ccccc12 [CINCHONINE],1.8
14,Nc1ccc2c(c1)CN1C(=O)c3ccccc3C1=N2 [DANIQUIDONE],48

# Target: T1, Cytochrome P450 2D6
# Experiment: Binding affinity for cytochrome P450 2D6
# Type: ADME
row,Structure (SMILES),Ki [µM]
1,C=C[C@H]1C[N@@]2CC[C@H]1C[C@@H]2[C@@H](O)c1ccnc2ccccc12 [CINCHONINE],21
